US20230105108A1, “COMPOUNDS FOR THE TREATMENT OF BACTERIAL INFECTIONS AND POTENTIATION OF ANTIBIOTICS” (GEORGIA STATE UNIVERSITY RESEARCH FOUNDATION, INC., priority 2019, published 2023)
Structures can show the parent of a compound that is named as a salt. Where two headings read alike, the source gives them in different places.

Assays:
E. coli (ATCC 25922) = assay: MIC determination, sensitization fold and FIC index on E. coli; assay type: cell-based; details: for MIC: Escherichia coli; for sensitization activity: compound at up to 10 μM; for Sensitization: compound up to 25 μM
Experimental: (§1) Bacteria culture and MICs determination: Gram-negative bacteria were cultured in Mueller Hinton II cation-adjusted broth. Gram-positive bacteria were cultured in LB broth. Mycobacterium smegmatis was cultured in Middlebrook 7H9 Broth. MICs of antibiotics itself were determined by performing two-fold serial dilutions of antibiotics. MICs of antibiotics in the presence of bacterial sensitizers were determined by performing two-fold serial dilutions of antibiotics with or without a constant concentration of bacterial sensitizers. The MICs tests were performed on 96-well plates with a final volume of 200 μl Mueller Hinton II cation-adjusted broth in each well. Each well was inoculated with 5×10^5 CFU/ml bacteria and was incubated for 24 h at 37° C. with continuous shaking of 200 rpm. The bacterial density was then determined by OD600. Bacterial growth %=OD600 of antibiotic treatment group/OD600 of antibiotic non-treatment group. MICs was determined as the concentrations that inhibit more than 90% of bacteria growth.
(§2) Sensitization fold determination and FIC index calculations: Sensitization fold=MIC of antibiotic only/MIC of antibiotic with bacterial sensitizer. […] Since the MICs were determined by performing two-fold serial dilutions of antibiotic, so the sensitization fold can is the times of 2.
FIC index between compound a and b was calculated according to the formula below: […]
FIC≤0.5: Synergy; FIC between 0.5 and 1: Additive; FIC between 1 and […]: no interaction; FIC >4: antagonism.
(§3) Bacteria strains (as indicated in Table 5B) were cultured with rifampicin at various concentrations in the presence or absence of 10 μM of the indicated compound for 20 h at 37° C. The MIC, sensitization, cytotoxicity, and MIC on mycobacteria were tested according to methods described herein. […] The sensitization activities of compounds on MRSA were tested using rifampicin. The sensitization activities of compounds on E. coli were tested using rifampicin.

[1] = tested on: NDM-1 expressing E. coli strain; assay: microbe, parasite or virus in culture; assay type: cell-based; details: Escherichia coli; antibiotic alone (Table 14); read-out: MIC on NDM-1 over-expression E. coli
[2] = tested on: A. baumannii (ATCC 17978); assay: MIC, sensitization fold and FIC index on A. baumannii; assay type: cell-based; details: A. baumannii towards the antibiotic
MRSA (ATCC 33592) = assay: MIC determination and sensitization fold on MRSA; assay type: cell-based, methicillin-resistant Staphylococcus aureus; details: for MIC: Staphylococcus aureus, 24 h; for Sensitization fold: rifampicin
Experimental: Bacteria strains: E. coli (ATCC 25922), A. baumannii (ATCC 17978), K. pneumoniae (43816), S. maltophilia (ATCC 31559), S. typhimurium (ATCC 14028), C. werkmanii (ATCC 51114), S. aureus (ATCC 12600) and methicillin-resistant Staphylococcus aureus (MRSA, ATCC 33592) strains were purchased from ATCC. NR698 was provided.
as §1, §2, §3

[3] = Cytotoxicity on mammalian cells (CCK-8), NIH3T3; assay type: cell-based; details: mouse, NIH3T3 cells, 3T3 cell line
Experimental: (§4) Cytotoxicity test of bacterial sensitizers on mammalian cells. Cell viability was assessed by using Cell Counting Kit-8 (CCK-8, Dojindo, Japan). HEK293 or NIH3T3 cells were seeded in a 96-well plate one day before the experiment to reach 80% confluency. Cells were then incubated with various concentration of bacterial sensitizers at 37° C. with 5% CO2 for 24 h, then 10 μL of CCK-8 solution was added to each well, and the plate was incubated for an additional at 37° C. 2 h with 5% CO2. The optical density at 450 nm was recorded by plate reader; and the results were calculated as a percentage of viability compared with the untreated control.

B. subtilis = assay: MIC determination and sensitization fold on B. subtilis; assay type: cell-based; details: B. subtilis; for Sensitization fold / Sensitization: erythromycin; for MIC: Bacillus subtilis, 24 h, compound alone, read-out: MIC; for Sensitization: compound up to 12 μM
[4] = Cytotoxicity in H9c2 cells (CCK-8); assay type: cell-based; details: rat, H9c2 cells; H9c2 cell line
Experimental: The cytotoxicity in H9c2 (ATCC®CRL-1446™) cells was also determined. The H9c2 cells were maintained in DMEM (Dulbecco's Modified Eagle's Medium) supplemented with 10% fetal bovine serum (MidSci; S01520HI) and 1% penicillin-streptomycin (Sigma-Aldrich; P4333) at 37° C. with 5% CO2. The H9c2 cells were seeded in 96-well plate one day before the experiment. Different concentrations of di-amidine compounds were added into the H9c2 cells. The cells were then incubated with the compounds for 24 hours at 37° C. with 5% CO2. The cell viability was tested by the CCK-8. Specifically, after 24 hour incubation, 10 μL CCK-8 was added to each well. After 3 hours incubation at 37° C., the absorbance at 450 nm was recorded by a plate reader.

[5] = Cytotoxicity on mammalian cells (CCK-8), HEK293; assay type: cell-based; details: human, HEK293 cells; HEK293 cell line; 24 h
Experimental: as §4

[6] = MRSA, compound alone, read-out: MIC
[7] = ATCC25922, 24 h, E. coli, compound alone, read-out: MIC

CC(C)(O/N=C(\C(=O)N[C@@H]1C(=O)N2C(C(=O)[O-])=C(C[n+]3ccccc3)CS[C@H]12)c1csc(N)n1)C(=O)O [Ceftazidime, reference compound]
MIC (E. coli (ATCC 25922); ATCC25922, antibiotic alone (Table 14), read-out: MIC on wild-type E.coli): < 0.2 mg/L
MIC [1]: > 6.25 mg/L

O=C(O)c1cn(C2CC2)c2cc(N3CCNCC3)c(F)cc2c1=O [Ciprofloxacin, reference compound]
Sensitization fold with 5 μg/ml MD-124 [2]: 4 fold
Sensitization fold (E. coli (ATCC 25922); E. coli towards the antibiotic, MD-124 5 μg/ml): 4 fold
MIC of AB with MD-124 (E. coli (ATCC 25922); E. coli, MD-124 concentration 5 μg/ml): 0.0125 mg/L
MIC (E. coli (ATCC 25922); ATCC25922, 24 h, E. coli (wild type), antibiotic alone, read-out: MIC of AB only): 0.05 mg/L

NC[C@H]1O[C@H](O[C@H]2[C@H](O)[C@@H](O[C@H]3O[C@H](CO)[C@@H](O)[C@H](N)[C@H]3O)[C@H](N)C[C@@H]2N)[C@H](O)[C@@H](O)[C@@H]1O [Kanamycin]
Sensitization fold with 5 μg/ml MD-124 [2]: 2 fold

Cc1cc(COc2ccc(CN)cc2)cc(COc2ccc(CN)cc2)c1 [MD-106, ((((S-methyl-1,3-phenylene)bis(methylene))bis(oxy))bis(4,1-phenylene))dimethanamine dihydrochloride]
MIC (MRSA (ATCC 33592); [6]): > 50 µM
CC50 at 24 h [3]: 25 µM
Sensitization fold (B. subtilis; compound at 4 μM): 4-fold at 4 μM
Sensitization fold (B. subtilis; compound at 12 μM): 16-fold at 12 μM
MIC (B. subtilis): > 50 µM
CC50 at 24 h [4]: 12.5 µM
Sensitization fold (E. coli (ATCC 25922); 10 μM compound, rifampicin as the antibiotic (Table 6)): 1 fold
Sensitization fold (E. coli (ATCC 25922); E. coli, rifampicin, compound at 25 μM): 4-fold at 25 μM
MIC (E. coli (ATCC 25922); [7]): 100 µM
sensitization activity (E. coli (ATCC 25922); rifampicin): no sensitization activity
CC50 at 24 h [5]: 25 µM

CC(C)NC(=N)c1ccc(OCc2cccc(COc3ccc(C(=N)NC(C)C)cc3)c2F)cc1 [MD-110, 1,3-Bis{(4-isopropylamidino)-phenoxymethyl}-2-fluorobenzene dihydrochloride]
Sensitization fold (MRSA (ATCC 33592); MRSA, compound at 4 μM): 16-fold at 4 μM.
CC50 at 24 h [3]: > 100 µM
Sensitization fold (B. subtilis; compound at 6 μM): No effect at 6 μM.
MIC (B. subtilis): 25 µM
Sensitization (E. coli (ATCC 25922); E. coli, rifampicin): No effect up to 25 μM.
MIC (E. coli (ATCC 25922); [7]): 25 µM
CC50 at 24 h [5]: > 100 µM

CC(C)NC(=N)c1ccc(OCc2cccc(COc3ccc(C(=N)NC(C)C)cc3F)c2F)c(F)c1 [MD-111, 1,3-Bis {(4-isopropylamidino-2-fluoro)-phenoxymethyl}-2-fluorobenzene dihydrochloride]
Sensitization fold (MRSA (ATCC 33592); MRSA, compound at 6 μM): 8 -fold at 6 μM.
Sensitization fold (MRSA (ATCC 33592); MRSA, compound at 12 μM): 16-fold at 12 μM,
MIC (MRSA (ATCC 33592); [6]): 50 µM
CC50 at 24 h [3]: > 100 µM
Sensitization (B. subtilis): No effect up to 12 μM.
MIC (B. subtilis): 25 µM
Sensitization (E. coli (ATCC 25922); E. coli, rifampicin): No effect up to 25 μM.
MIC (E. coli (ATCC 25922); [7]): 50 µM
CC50 at 24 h [5]: > 100 µM

Cc1cc(COc2ccc(C3=NCCCN3)cc2)cc(COc2ccc(C3=NCCCN3)cc2)c1 [MD-113, 2,2′-((((5-methyl-1,3-phenylene)bis(methylene))bis(oxy))bis(4,1-phenylene))bis(1,4,5,6-tetrahydropyrimidine) dihydrochloride]
Sensitization fold (MRSA (ATCC 33592); MRSA, compound at 12 μM): 4-fold at 12 μM.
Sensitization fold (MRSA (ATCC 33592); MRSA, compound at 25 μM): 8-fold at 25 μM,
MIC (MRSA (ATCC 33592)): > 50 µM
CC50 at 24 h [3]: > 100 µM
Sensitization (B. subtilis): No effect up to 12 μM.
MIC (B. subtilis): 50 µM
Sensitization (E. coli (ATCC 25922); E. coli, rifampicin): No effect up to 25 μM.
MIC (E. coli (ATCC 25922); ATCC25922, 24 h): > 100 µM
sensitization activity (E. coli (ATCC 25922); rifampicin): no sensitization activity
CC50 at 24 h [5]: > 100 µM
